According to ChEMBL document CHEMBL3217710, “Antimalarial peroxides: advances in drug discovery and design” (Medchemcomm, 2012):

Key:
Plasmodium yoelii = assay: Antimalarial activity against chloroquine-resistant Plasmodium yoelii infected in po dosed mouse; assay type: functional
Plasmodium falciparum [1] = assay: Antimalarial activity against chloroquine-resistant Plasmodium falciparum; assay type: functional, organism-based
Plasmodium falciparum [2] = assay: Antimalarial activity against chloroquine-sensitive Plasmodium falciparum; assay type: functional, organism-based
[3] = Octanol-water partition coefficient, log P of the compound at pH 7.4; assay type: physicochemical
Plasmodium falciparum [4] = assay: Antimalarial activity against chloroquine-resistant Plasmodium falciparum K1; assay type: functional, organism-based
Plasmodium falciparum [5] = assay: Antimalarial activity against chloroquine-sensitive Plasmodium falciparum FCR-3; assay type: functional; details: FCR-3/Gambia
Plasmodium falciparum [6] = assay: Antimalarial activity against Plasmodium falciparum; assay type: functional, organism-based
[7] = Half life of the compound in HCl solution at pH 1; assay type: physicochemical
[8] = Half life in human infected with Plasmodium; details: in vivo
Plasmodium falciparum [9] = assay: Antimalarial activity against chloroquine-sensitive Plasmodium falciparum NF54; assay type: functional, organism-based
[10] = Half life in simulated stomach acid; assay type: ADME
[11] = Drug degradation at 40 degC after 1 month; assay type: physicochemical; details: read-out: Drug degradation
[12] = Drug degradation at 40 degC after 3 months; assay type: physicochemical; details: read-out: Drug degradation
Plasmodium berghei [13] = assay: Antimalarial activity against chloroquine-sensitive Plasmodium berghei infected in mouse; assay type: functional
Plasmodium falciparum [14] = assay: Antimalarial activity against multi-drug resistant Plasmodium falciparum; assay type: functional, organism-based
[15] = Therapeutic index, ratio of compound activity in mouse assessed as body weight gain to compound activity against Plasmodium berghei infected in mouse; assay type: organism-based; details: in vivo, read-out: TI
Plasmodium berghei [16] = assay: Antimalarial activity against Plasmodium berghei infected in sc dosed mouse; assay type: functional, organism-based
[17] = Oral bioavailability in rat at 50 mg/kg; assay type: ADME, organism-based; details: in vivo
Plasmodium falciparum [18] = assay: Antimalarial activity against chloroquine-sensitive Plasmodium falciparum at 1.4 nM relative to control; assay type: functional
Plasmodium falciparum [19] = assay: Antimalarial activity against chloroquine-sensitive Plasmodium falciparum at 4.6 nM relative to control; assay type: functional
Plasmodium falciparum [20] = assay: Antimalarial activity against chloroquine-sensitive Plasmodium falciparum at 5.2 nM relative to control; assay type: functional
Plasmodium vinckei [21] = assay: Antimalarial activity against Plasmodium vinckei infected in ip dosed mouse assessed as decrease in parasitemia by peters four day suppressive test; assay type: functional; details: 96 h
Plasmodium vinckei [22] = assay: Antimalarial activity against Plasmodium vinckei infected in po dosed mouse assessed as decrease in parasitemia by peters four day suppressive test; assay type: functional; details: 96 h

C[C@H]1[C@@H](CCN2CCN(c3ccc([N+](=O)[O-])cc3)CC2)O[C@@H]2O[C@]3(C)CC[C@H]4[C@H](C)CC[C@@H]1[C@@]24OO3
ED50 (Plasmodium yoelii): < 10 mg/kg

CC1(C)COC2(CCC(NC3CCC(Nc4ccnc5cc(Cl)ccc45)CC3)CC2)OO1 (stereo not drawn)
IC50 (Plasmodium falciparum [1]): 7 nM | IC50 (Plasmodium falciparum [2]): 7 nM

C[C@H]1[C@H](N2CCOCC2)O[C@@H]2O[C@@]3(C)CC[C@H]4[C@H](C)CC[C@@H]1[C@@]24OO3
logD [3]: 3.05

Cc1ccc(C2=C[C@H]3OC4(CCCC4)OO[C@@]3(c3ccc(C)cc3)C2)cc1
IC50 (Plasmodium falciparum [4]): < 5 nM

C1CCCCCC2(CCCCC1)OOCCCOO2
EC50 (Plasmodium falciparum [5]): 2.5 nM

C[C@@H]1CC[C@H]2[C@@H](C)C(Oc3ccc(F)cc3)O[C@@H]3O[C@@]4(C)CC[C@@H]1[C@]32OO4 (stereo partly drawn)
IC50 (Plasmodium falciparum [1]): 5.3 nM | IC50 (Plasmodium falciparum [2]): 3.9 nM

C=C(C)[C@@H]1OO[C@]2(O[C@H]1C1CC1)[C@H]1CC3C[C@@H](C1)C[C@H]2C3
IC50 (Plasmodium falciparum [4]): < 5 nM

CC(=O)OC1(C)CCC2CC1OO[C@]2(/C=C\c1ccc(Cl)cc1)c1ccccc1 (stereo partly drawn)
IC50 (Plasmodium falciparum [4]): 23 nM

Cc1ccc(OC2O[C@@H]3O[C@@]4(C)CC[C@H]5[C@H](C)CC[C@@H]([C@H]2C)[C@@]35OO4)cc1 (stereo partly drawn)
IC50 (Plasmodium falciparum [1]): 5.3 nM | IC50 (Plasmodium falciparum [2]): 3.9 nM

C[C@H]1[C@H](N2CC[S+]([O-])CC2)O[C@@H]2O[C@@]3(C)CC[C@H]4[C@H](C)CC[C@@H]1[C@@]24OO3
logD [3]: 2.63

CO[C@@]1(C(F)(F)F)O[C@@H]2O[C@@]3(C)CC[C@H]4[C@H](C)CC[C@@H]([C@H]1C)[C@@]24OO3
IC50 (Plasmodium falciparum [6]): 0.8 nM | half-life [7]: 27.5 days

C1CCCCCC2(CCCCC1)OOCCCCCOO2
EC50 (Plasmodium falciparum [5]): 1 nM

C[C@H]1[C@@H](CCN2CCN(c3ccccc3)CC2)O[C@@H]2O[C@]3(C)CC[C@H]4[C@H](C)CC[C@@H]1[C@@]24OO3
ED50 (Plasmodium yoelii): < 10 mg/kg

C[C@@H]1CC[C@H]2[C@@H](C)C(=O)O[C@@H]3O[C@@]4(C)CC[C@@H]1[C@]32OO4 [ARTEMISININ]
half-life [8]: 0.0833 days | IC50 (Plasmodium falciparum [9]): 8.9 nM | IC50 (Plasmodium falciparum [4]): 2.8 nM

C[C@H]1[C@@H](OCc2ccc(C(=O)[O-])cc2)O[C@@H]2O[C@]3(C)CC[C@H]4[C@H](C)CC[C@@H]1[C@@]24OO3.[Na+] [SODIUMARTELINATE]
half-life [10]: 10.8 days

Clc1ccc2c(NCCNC3CCC4(CC3)OOC3(c5ccccc5)CC(c5ccccc5)=CC3O4)ccnc2c1 (stereo not drawn)
IC50 (Plasmodium falciparum [1]): 20 nM | IC50 (Plasmodium falciparum [2]): 7 nM

CC(=O)OC1(C)CCC2CC1OO[C@]2(/C=C\c1ccc(F)cc1)c1ccccc1 (stereo partly drawn)
IC50 (Plasmodium falciparum [4]): 29 nM

C[C@H]1[C@@H](O)O[C@@H]2O[C@@]3(C)CC[C@H]4[C@H](C)CC[C@@H]1[C@@]24OO3 [ARTENIMOL]
degraded at 730.5 h [11]: 2% | degraded at 2191.5 h [12]: 2.9%

C[C@H]1[C@@H](Oc2ccc(C(F)(F)F)cc2)O[C@@H]2O[C@]3(C)CC[C@H]4[C@H](C)CC[C@@H]1[C@@]24OO3
ED50 (Plasmodium berghei [13]): 2.1 mg/kg

C[C@H]1[C@@H](CCc2ccc(C(=O)O)cc2)O[C@@H]2O[C@]3(C)CC[C@H]4[C@H](C)CC[C@@H]1[C@@]24OO3
half-life [10]: 0.546 days

C[C@H]1[C@H](OC(=O)CCC(=O)O)O[C@@H]2O[C@@]3(C)CC[C@H]4[C@H](C)CC[C@@H]1[C@@]24OO3 [SODIUM ARESUNATE]
EC50 (Plasmodium falciparum [14]): 0.73 nM

CC1CCC2CC1OO[C@]2(C)/C=C/[C@H](O)C(C)(C)O (stereo partly drawn)
IC50 (Plasmodium falciparum [4]): 115 nM

C[C@@H]1CC[C@H]2[C@@H](C)[C@](OC(=O)CCC(=O)O)(C(F)(F)F)O[C@@H]3O[C@@]4(C)CC[C@@H]1[C@]32OO4
IC50 (Plasmodium falciparum [6]): 4.1 nM

C[C@H]1[C@@H](CC(C[C@H]2O[C@@H]3O[C@@]4(C)CC[C@H]5[C@H](C)CC[C@@H]([C@H]2C)[C@@]35OO4)C(=O)O)O[C@@H]2O[C@@]3(C)CC[C@H]4[C@H](C)CC[C@@H]1[C@@]24OO3 (stereo partly drawn)
selectivity ratio [15]: 167

C[C@@H]1CC[C@H]2[C@@H](C)C(Oc3ccc(-c4cccc5ccccc45)cc3)O[C@@H]3O[C@@]4(C)CC[C@@H]1[C@]32OO4 (stereo partly drawn)
IC50 (Plasmodium falciparum [1]): 5.3 nM | IC50 (Plasmodium falciparum [2]): 3.9 nM

C[C@@H]1CC[C@H]2[C@@H](C)C(Oc3ccccc3)O[C@@H]3O[C@@]4(C)CC[C@@H]1[C@]32OO4 (stereo partly drawn)
IC50 (Plasmodium falciparum [1]): 5.3 nM | IC50 (Plasmodium falciparum [2]): 3.9 nM

C[C@@H]1CC[C@H]2[C@@H](C)C(Oc3ccc(Cl)cc3)O[C@@H]3O[C@@]4(C)CC[C@@H]1[C@]32OO4 (stereo partly drawn)
IC50 (Plasmodium falciparum [1]): 5.3 nM | IC50 (Plasmodium falciparum [2]): 3.9 nM

CO[C@H]1O[C@@H]2O[C@@]3(C)CC[C@H]4[C@H](C)CC[C@@H]([C@H]1C)[C@@]24OO3 [ARTEMETHER]
logD [3]: 4 | ED50 (Plasmodium yoelii): 6 mg/kg

OCCCCCCC1COOC2(CCCCCCCCCCC2)OOC1
EC50 (Plasmodium falciparum [5]): 2.3 nM

CCO[C@@]1(C(F)(F)F)O[C@@H]2O[C@@]3(C)CC[C@H]4[C@H](C)CC[C@@H]([C@H]1C)[C@@]24OO3
IC50 (Plasmodium falciparum [6]): 3.3 nM | half-life [7]: 20.8 days

C[C@H]1[C@H](N2CCS(=O)(=O)CC2)O[C@@H]2O[C@@]3(C)CC[C@H]4[C@H](C)CC[C@@H]1[C@@]24OO3 [ARTEMIFONE]
logD [3]: 2.49 | ED90 (Plasmodium berghei [16]; sc): 1.5 mg/kg | EC50 (Plasmodium falciparum [14]): 0.14 nM

Fc1ccc(C2=C[C@H]3OC4(CCOCC4)OO[C@@]3(c3ccc(F)cc3)C2)cc1
IC50 (Plasmodium falciparum [4]): < 5 nM

C[C@@H]1CC[C@H]2[C@@H](C)[C@](O)(C(F)(F)F)O[C@@H]3O[C@@]4(C)CC[C@@H]1[C@]32OO4
IC50 (Plasmodium falciparum [6]): 9.4 nM | half-life [7]: 31.7 days | bioavailability [17]: 28%

C[C@H]1[C@H](c2ccco2)O[C@@H]2O[C@@]3(C)CC[C@H]4[C@H](C)CC[C@@H]1[C@@]24OO3
inhibition at 0.0014 µM (Plasmodium falciparum [18]): 50%

COc1ccc(OC2O[C@@H]3O[C@@]4(C)CC[C@H]5[C@H](C)CC[C@@H]([C@H]2C)[C@@]35OO4)cc1 (stereo partly drawn)
IC50 (Plasmodium falciparum [1]): 5.3 nM | IC50 (Plasmodium falciparum [2]): 3.9 nM

C[C@H]1[C@H](c2cccn2C)O[C@@H]2O[C@@]3(C)CC[C@H]4[C@H](C)CC[C@@H]1[C@@]24OO3
inhibition at 0.0046 µM (Plasmodium falciparum [19]): 50%

Cc1ccc([C@@H]2O[C@@H]3O[C@@]4(C)CC[C@H]5[C@H](C)CC[C@@H]([C@H]2C)[C@@]35OO4)o1
inhibition at 0.0052 µM (Plasmodium falciparum [20]): 50%

COC1(c2ccc(S(C)(=O)=O)cc2)C=CC2(CCCCCC2)OO1 (stereo not drawn)
IC50 (Plasmodium berghei [16]): 31 nM

C[C@H]1[C@@H](CCN2CCN(c3ccc(F)cc3)CC2)O[C@@H]2O[C@]3(C)CC[C@H]4[C@H](C)CC[C@@H]1[C@@]24OO3
ED50 (Plasmodium yoelii): < 10 mg/kg

CC(C)C1=C[C@H]2OC3(CCC(NCCNc4ccnc5cc(Cl)ccc45)CC3)OO[C@@]2(C)CC1.O=C(O)CC(O)(CC(=O)O)C(=O)O (stereo partly drawn)
IC50 (Plasmodium falciparum [1]): 5 nM | IC50 (Plasmodium falciparum [2]): 4 nM | ED50 (Plasmodium vinckei [21]): 5 mg/kg | ED50 (Plasmodium vinckei [22]): 18 mg/kg

C=C(C)[C@@H]1OO[C@]2(O[C@H]1CCC)[C@H]1CC3C[C@@H](C1)C[C@H]2C3
IC50 (Plasmodium falciparum [4]): < 5 nM

C[C@H]1[C@@H](CCN2CCN(c3cccc(C(F)(F)F)c3)CC2)O[C@@H]2O[C@]3(C)CC[C@H]4[C@H](C)CC[C@@H]1[C@@]24OO3
ED50 (Plasmodium yoelii): 3.1 mg/kg

Fc1ccc(C2=C[C@H]3OC4(CCCC4)OO[C@@]3(c3ccc(F)cc3)C2)cc1
IC50 (Plasmodium falciparum [4]): < 5 nM

CC1CCC2CC1OO[C@]2(C)/C=C/[C@@H](O)C(C)(C)O (stereo partly drawn)
IC50 (Plasmodium falciparum [4]): 56 nM

C[C@H]1[C@H](N2CCSCC2)O[C@@H]2O[C@@]3(C)CC[C@H]4[C@H](C)CC[C@@H]1[C@@]24OO3 [ARTEMISIDE]
logD [3]: 4.97

C[C@@H]1CC[C@H]2[C@@H](C)C(Oc3ccc(C(F)(F)F)cc3)O[C@@H]3O[C@@]4(C)CC[C@@H]1[C@]32OO4 (stereo partly drawn)
IC50 (Plasmodium falciparum [1]): 5.3 nM | IC50 (Plasmodium falciparum [2]): 3.9 nM
